Test results from paper PMC5290327, “SC83288 is a clinical development candidate for the treatment of severe malaria” (Nature Communications, 2017).
Read-outs that look alike come from different tables or passages of the source.

Key:
[1] = tested on: P. falciparum strain FCR3; experiment: Growth inhibition assay; format: cell-based; conditions: Plasmodium falciparum
P. falciparum strain 7G8 = experiment: microbe, parasite or virus in culture; format: cell-based; conditions: Plasmodium falciparum
Plasmodium berghei = experiment: Rodent malaria model; format: in vivo; conditions: P. berghei, 30 mg kg-1 i.p. 1x4 days
Protocol: This was the case for both an in vivo 4 day dosing regimen of 30 mg kg^−1 per day and an ex vivo one-cycle growth inhibition assay. […] Differential therapeutic efficacy in various rodent model systems is a well-established phenomenon and is typically associated with charged compounds, such as positively charged amidines and negatively charged phosphoric acid or carboxylic acid containing drugs. The phenomenon is explained based on selective uptake of charged compounds through parasite-induced channels, termed new permeation pathways, in the host cell plasma membrane and species-specific characteristics of the new permeation pathways.

PK study = format: in vivo, mouse; conditions: for half-life: mouse; for MRT last: read-out: MRT0-t; for time of peak plasma concentration (Cmax): single i.p. dose in mice
Protocol: On the treatment day, all animals were weighed and the dosing volume was calculated for each individual animal according to its actual body weight. All animal were dosed once. Blood samples were taken at different time points and plasma was collected after centrifugation (10,000g, 10 min, 4 °C). Plasma samples were analysed by LC–MS/MS. […] All relevant observations were recorded. The PK studies in cynomolgus monkeys and beagle dogs were performed by the Laboratory of Pharmacology and Toxicology (LPT), Hamburg, and PK and toxicity studies in mice and rats were performed by the 4SC Discovery GmbH, Munich. PK parameters were obtained by a non-compartment analysis, using Kinetica 4.1 (Thermo Scientific).

A1 (h) = target: T1, A1 (h) (Homo sapiens, UniProt P30542); experiment: Radioligand binding
T1 construct: Cerep (contract study)
T1 sequence (P30542 whole entry): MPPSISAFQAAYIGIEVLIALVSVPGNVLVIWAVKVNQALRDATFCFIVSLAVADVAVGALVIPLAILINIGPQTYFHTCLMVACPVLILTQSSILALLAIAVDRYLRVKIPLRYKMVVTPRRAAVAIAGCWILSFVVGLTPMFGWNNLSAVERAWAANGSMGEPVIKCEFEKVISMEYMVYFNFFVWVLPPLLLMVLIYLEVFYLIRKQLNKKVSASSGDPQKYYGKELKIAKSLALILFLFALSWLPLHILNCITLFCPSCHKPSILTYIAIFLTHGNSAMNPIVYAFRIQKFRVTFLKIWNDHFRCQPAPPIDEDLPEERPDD

b2 (h) = target: T2, b2 (h) (Homo sapiens, UniProt P07550); format: binding
T2 construct: Cerep (contract study)
T2 sequence (P07550 whole entry): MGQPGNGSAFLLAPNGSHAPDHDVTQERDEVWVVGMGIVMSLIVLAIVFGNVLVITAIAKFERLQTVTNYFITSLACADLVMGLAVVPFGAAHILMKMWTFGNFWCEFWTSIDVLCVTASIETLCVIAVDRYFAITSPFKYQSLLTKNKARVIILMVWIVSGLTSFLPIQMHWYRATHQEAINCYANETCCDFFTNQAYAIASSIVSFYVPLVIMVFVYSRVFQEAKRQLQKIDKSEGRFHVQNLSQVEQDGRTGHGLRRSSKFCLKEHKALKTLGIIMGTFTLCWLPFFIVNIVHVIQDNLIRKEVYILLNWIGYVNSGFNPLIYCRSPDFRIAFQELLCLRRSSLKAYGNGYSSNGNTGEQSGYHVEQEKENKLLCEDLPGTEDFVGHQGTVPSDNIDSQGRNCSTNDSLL

BZD (central) = experiment: Radioligand binding
D2S (h) = target: T3, D2S (h) (Homo sapiens, UniProt P14416); experiment: Radioligand binding
T3 construct: Cerep
T3 sequence (P14416 1-414 isoform P14416-2): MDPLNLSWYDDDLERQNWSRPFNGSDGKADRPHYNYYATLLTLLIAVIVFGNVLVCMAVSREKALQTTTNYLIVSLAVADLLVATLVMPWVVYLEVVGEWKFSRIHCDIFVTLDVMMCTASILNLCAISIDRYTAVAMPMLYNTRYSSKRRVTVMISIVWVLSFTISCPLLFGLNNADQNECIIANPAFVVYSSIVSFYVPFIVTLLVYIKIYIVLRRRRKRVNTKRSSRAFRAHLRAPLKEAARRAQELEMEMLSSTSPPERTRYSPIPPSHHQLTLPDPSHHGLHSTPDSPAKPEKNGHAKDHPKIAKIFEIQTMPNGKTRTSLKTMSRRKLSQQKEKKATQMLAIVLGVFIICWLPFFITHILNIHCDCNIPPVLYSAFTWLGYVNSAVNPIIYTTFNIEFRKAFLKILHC

ETA (h) = target: T4, ETA (h) (Homo sapiens, UniProt P25101); experiment: Radioligand binding
T4 construct: Cerep
T4 sequence (P25101 21-427): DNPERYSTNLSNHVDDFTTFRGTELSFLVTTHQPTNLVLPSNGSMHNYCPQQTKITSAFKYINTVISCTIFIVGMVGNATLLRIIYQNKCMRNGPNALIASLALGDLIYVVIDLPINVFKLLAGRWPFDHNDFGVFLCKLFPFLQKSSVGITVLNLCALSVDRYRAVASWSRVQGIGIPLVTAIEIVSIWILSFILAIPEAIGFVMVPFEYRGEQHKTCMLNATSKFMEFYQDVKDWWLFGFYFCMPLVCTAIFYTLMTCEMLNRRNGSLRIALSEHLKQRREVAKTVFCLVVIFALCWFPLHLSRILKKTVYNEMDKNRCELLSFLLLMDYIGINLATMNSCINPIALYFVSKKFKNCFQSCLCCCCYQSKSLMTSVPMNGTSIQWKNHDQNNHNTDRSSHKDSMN

GAL2 (h) = target: T5, GAL2 (h) (Homo sapiens, UniProt O43603); experiment: Radioligand binding
T5 construct: Cerep
T5 sequence (O43603 whole entry): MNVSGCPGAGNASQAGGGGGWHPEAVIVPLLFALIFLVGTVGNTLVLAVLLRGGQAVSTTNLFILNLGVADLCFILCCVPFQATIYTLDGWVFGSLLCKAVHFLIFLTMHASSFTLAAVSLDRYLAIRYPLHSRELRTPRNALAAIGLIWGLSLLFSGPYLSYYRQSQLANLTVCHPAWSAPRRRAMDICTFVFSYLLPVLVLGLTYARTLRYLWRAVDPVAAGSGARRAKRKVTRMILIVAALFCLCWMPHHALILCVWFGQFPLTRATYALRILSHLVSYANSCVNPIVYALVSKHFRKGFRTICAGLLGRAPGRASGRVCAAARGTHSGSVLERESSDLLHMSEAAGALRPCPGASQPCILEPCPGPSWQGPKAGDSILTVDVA

CCR1 (h) = target: T6, CCR1 (h) (Homo sapiens, UniProt P32246); experiment: Radioligand binding
T6 construct: Cerep
T6 sequence (P32246 1-355): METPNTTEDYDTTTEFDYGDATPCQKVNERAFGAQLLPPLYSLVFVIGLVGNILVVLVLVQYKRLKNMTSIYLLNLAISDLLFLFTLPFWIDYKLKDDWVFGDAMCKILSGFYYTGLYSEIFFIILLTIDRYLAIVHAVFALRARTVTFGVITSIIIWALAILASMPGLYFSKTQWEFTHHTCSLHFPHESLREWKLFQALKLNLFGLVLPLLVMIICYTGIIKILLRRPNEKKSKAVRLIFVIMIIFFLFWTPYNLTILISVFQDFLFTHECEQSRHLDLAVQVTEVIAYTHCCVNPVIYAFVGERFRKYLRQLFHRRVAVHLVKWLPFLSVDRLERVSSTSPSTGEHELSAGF

H1 (h) = target: T7, H1 (h) (Homo sapiens, UniProt P35367); format: binding
T7 construct: Cerep
T7 sequence (P35367 whole entry): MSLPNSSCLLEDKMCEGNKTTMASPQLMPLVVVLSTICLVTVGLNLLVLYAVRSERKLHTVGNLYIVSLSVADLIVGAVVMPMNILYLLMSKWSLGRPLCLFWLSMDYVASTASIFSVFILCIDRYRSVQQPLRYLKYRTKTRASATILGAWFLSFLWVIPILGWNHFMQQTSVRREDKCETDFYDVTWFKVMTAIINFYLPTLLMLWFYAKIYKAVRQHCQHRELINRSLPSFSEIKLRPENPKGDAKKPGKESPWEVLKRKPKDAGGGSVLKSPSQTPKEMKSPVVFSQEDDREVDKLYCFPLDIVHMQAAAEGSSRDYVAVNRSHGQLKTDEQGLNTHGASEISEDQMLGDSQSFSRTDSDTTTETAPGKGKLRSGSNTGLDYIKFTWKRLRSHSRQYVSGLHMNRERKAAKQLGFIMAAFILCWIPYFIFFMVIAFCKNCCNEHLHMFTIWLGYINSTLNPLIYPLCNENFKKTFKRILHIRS

M2 (h) = target: T8, M2 (h) (Homo sapiens, UniProt P08172); experiment: Radioligand binding
T8 construct: Cerep

NTS1 (NT1) (h) = target: T9, NTS1 (NT1) (h) (Homo sapiens, UniProt P30989); experiment: Radioligand binding
T9 construct: Cerep

d2 (DOP) (h) = target: T10, d2 (DOP) (h) (Homo sapiens, UniProt P41143); experiment: Radioligand binding
T10 construct: Cerep
T10 sequence (P41143 whole entry): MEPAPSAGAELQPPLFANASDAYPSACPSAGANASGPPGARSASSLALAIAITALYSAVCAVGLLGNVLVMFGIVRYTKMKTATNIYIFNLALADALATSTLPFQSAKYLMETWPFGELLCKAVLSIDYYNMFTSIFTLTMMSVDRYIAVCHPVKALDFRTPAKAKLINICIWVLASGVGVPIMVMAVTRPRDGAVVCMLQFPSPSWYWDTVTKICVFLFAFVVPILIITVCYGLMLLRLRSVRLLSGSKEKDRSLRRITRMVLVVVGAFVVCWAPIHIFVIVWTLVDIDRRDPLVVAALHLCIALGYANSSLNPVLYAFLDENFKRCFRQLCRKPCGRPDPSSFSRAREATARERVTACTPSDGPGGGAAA

m (MOP) (h) = target: T11, m (MOP) (h) (Homo sapiens, UniProt P35372); experiment: Radioligand binding
T11 construct: Cerep

5-HT1A (h) = target: T12, 5-HT1A (h) (Homo sapiens, UniProt P08908); experiment: Radioligand binding
T12 construct: Cerep

5-HT2A (h) = target: T13, 5-HT2A (h) (Homo sapiens, UniProt P28223); experiment: Radioligand binding
T13 construct: Cerep (contract screening)
T13 sequence (P28223 whole entry): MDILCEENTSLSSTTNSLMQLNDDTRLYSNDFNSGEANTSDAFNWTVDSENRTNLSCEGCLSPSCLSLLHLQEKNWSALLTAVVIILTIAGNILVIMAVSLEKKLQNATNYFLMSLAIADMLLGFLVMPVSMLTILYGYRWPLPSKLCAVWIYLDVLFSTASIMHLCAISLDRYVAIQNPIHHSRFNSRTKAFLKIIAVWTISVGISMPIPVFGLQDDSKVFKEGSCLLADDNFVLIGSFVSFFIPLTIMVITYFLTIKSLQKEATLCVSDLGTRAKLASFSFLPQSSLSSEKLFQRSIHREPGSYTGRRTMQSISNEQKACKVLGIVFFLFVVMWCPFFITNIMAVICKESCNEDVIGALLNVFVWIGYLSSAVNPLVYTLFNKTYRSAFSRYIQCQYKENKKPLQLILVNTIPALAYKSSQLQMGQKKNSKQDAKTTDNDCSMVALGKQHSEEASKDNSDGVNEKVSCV

5-HT3 (h) = target: T14, 5-HT3 (h) (Homo sapiens, UniProt P46098); experiment: Radioligand binding
T14 construct: Cerep (contract screening)

5-HT7 (h) = target: T15, 5-HT7 (h) (Homo sapiens, UniProt P34969); experiment: Radioligand binding
T15 construct: Cerep (contract screening)

VPAC1 (VIP1) (h) = target: T16, VPAC1 (VIP1) (h) (Homo sapiens, UniProt P32241); experiment: Radioligand binding
T16 construct: Cerep (contract screening)
T16 sequence (P32241 31-457): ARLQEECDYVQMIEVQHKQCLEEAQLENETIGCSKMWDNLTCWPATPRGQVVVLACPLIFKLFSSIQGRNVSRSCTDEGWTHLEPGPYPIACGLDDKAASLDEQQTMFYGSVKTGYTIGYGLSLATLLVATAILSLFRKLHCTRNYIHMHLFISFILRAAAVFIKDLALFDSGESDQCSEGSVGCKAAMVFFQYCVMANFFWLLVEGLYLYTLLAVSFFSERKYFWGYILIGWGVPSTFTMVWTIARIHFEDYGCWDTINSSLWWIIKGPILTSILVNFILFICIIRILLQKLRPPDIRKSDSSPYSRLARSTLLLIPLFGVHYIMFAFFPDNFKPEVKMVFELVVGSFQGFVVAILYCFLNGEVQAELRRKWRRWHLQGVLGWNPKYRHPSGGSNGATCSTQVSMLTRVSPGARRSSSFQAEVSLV

KV channel = experiment: Radioligand binding
5-HT transporter (h) = target: T17, 5-HT transporter (h) (Homo sapiens, UniProt P31645); experiment: Radioligand binding
T17 construct: Cerep (contract screening)

HepG2 cells = experiment: Cytotoxicity; conditions: 50 μM
CYP2A6 = CYP2A6 (Homo sapiens, UniProt P11509); experiment: CYP inhibition, human liver microsomes; conditions: CYP2A6, coumarin to 7-OH-coumarin, 10 µM
CYP2A6, sequence (P11509 whole entry): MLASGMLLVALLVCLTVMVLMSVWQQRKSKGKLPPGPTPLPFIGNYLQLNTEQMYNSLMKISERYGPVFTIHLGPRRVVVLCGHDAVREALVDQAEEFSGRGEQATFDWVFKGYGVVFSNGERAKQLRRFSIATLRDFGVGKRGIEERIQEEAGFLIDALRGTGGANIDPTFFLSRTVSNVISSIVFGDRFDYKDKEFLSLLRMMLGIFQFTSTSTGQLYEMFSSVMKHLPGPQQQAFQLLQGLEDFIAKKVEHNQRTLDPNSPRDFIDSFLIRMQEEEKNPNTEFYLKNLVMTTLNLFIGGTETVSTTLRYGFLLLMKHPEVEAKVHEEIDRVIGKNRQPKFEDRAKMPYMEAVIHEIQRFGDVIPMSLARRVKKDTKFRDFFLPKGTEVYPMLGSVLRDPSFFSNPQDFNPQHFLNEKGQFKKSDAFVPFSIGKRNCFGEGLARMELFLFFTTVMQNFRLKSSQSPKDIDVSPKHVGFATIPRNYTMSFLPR

CYP2B6 = CYP2B6 (Homo sapiens, UniProt P20813); experiment: CYP inhibition, human liver microsomes; conditions: CYP2B6, bupropion to OH-bupropion, 10 µM
CYP2C8 = CYP2C8 (Homo sapiens, UniProt P10632); experiment: CYP inhibition, human liver microsomes; conditions: CYP2C8, amodiaquine to Desethylamodiaquine, 10 µM
CYP2D6 = CYP2D6 (Homo sapiens, UniProt P10635); experiment: CYP inhibition, human liver microsomes; conditions: CYP2D6, dextromethorphan to O-desmethyldextromethorphan, 10 µM
CYP2D6, sequence (P10635 whole entry): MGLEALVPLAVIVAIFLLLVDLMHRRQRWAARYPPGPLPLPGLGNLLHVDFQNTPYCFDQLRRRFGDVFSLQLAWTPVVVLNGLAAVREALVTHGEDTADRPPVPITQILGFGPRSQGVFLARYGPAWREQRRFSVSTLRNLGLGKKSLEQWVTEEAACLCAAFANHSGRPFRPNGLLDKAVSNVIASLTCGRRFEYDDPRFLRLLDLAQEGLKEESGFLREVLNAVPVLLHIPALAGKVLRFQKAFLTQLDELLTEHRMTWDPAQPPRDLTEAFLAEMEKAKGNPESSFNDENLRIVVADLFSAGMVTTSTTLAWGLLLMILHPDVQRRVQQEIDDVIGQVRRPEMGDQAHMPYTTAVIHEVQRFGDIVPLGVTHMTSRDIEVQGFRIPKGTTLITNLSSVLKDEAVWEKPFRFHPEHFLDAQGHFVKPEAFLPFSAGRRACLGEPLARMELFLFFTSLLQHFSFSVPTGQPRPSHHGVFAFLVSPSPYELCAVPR

[2] = tested on: 13 human cytochrome P450 enzymes; experiment: Inhibition of cytochrome P450 enzymes, whole panel; conditions: 10 μM
[3] = plasma, ip, mouse i.p. 20 mg kg^−1
[4] = plasma, iv, mouse i.v. 2 mg kg^−1

## CCCCN1CCN(C(=N)c2cccc(NC(=O)Nc3ccc(S(=O)(=O)NCc4ccc(S(N)(=O)=O)cc4)cc3)c2)CC1 [SC81458, 4-(3-(3-((4-butylpiperazin-1-yl)(imino)methyl)phenyl)ureido)-N-(4-sulfamoylbenzyl) benzenesulfonamide]
[1]
  IC50: 13 ± 8 nM
P. falciparum strain 7G8
  IC50: 18 ± 5 nM
Plasmodium berghei
  Outcome: inactive
PK study; mouse i.p. 20 mg kg^−1
  CL: 4,607 ml h^−1 kg^−1
PK study; plasma, ip, 20 mg/kg, mouse i.p. 20 mg kg^−1, read-out: t1/2 effective
  half-life: 52 min
PK study; plasma, ip, 20 mg/kg, mouse i.p. 20 mg kg^−1, read-out: t1/2 terminal
  half-life: 860 min
PK study; [3]
  AUC(0-inf): 4340 ng·h/mL
  Cmax: 7380 ng/mL
  Tmax: 30 min
  MRT last: 74.4 min
PK study; plasma, ip, mouse i.p. 20 mg kg^−1, read-out: F, relative bioavailability compared to i.v.
  bioavailability: 62%
PK study
  time of peak plasma concentration (Cmax): ≤ 30 min
A1 (h)
  Inhibition of control specific binding: 7%
b2 (h)
  Inhibition of control specific binding: 6%
BZD (central)
  Inhibition of control specific binding: 16%
D2S (h)
  Inhibition of control specific binding: 15%
ETA (h)
  Inhibition of control specific binding: 1%
GAL2 (h)
  Inhibition of control specific binding: -15%
CCR1 (h)
  Inhibition of control specific binding: -13%
H1 (h)
  Inhibition of control specific binding: 6%
M2 (h)
  Inhibition of control specific binding: 45%
NTS1 (NT1) (h)
  Inhibition of control specific binding: 1%
d2 (DOP) (h)
  Inhibition of control specific binding: 10%
M (MOP) (h)
  Inhibition of control specific binding: 24%
5-HT1A (h)
  Inhibition of control specific binding: 2%
5-HT2A (h)
  Inhibition of control specific binding: 17%
5-HT3 (h)
  Inhibition of control specific binding: 1%
5-HT7 (h)
  Inhibition of control specific binding: 19%
VPAC1 (VIP1) (h)
  Inhibition of control specific binding: -4%
KV channel
  Inhibition of control specific binding: 0%
5-HT transporter (h)
  Inhibition of control specific binding: 28%
HepG2 cells
  in vitro propagation / cytotoxicity: did not affect
CYP2A6
  Remaining enzyme activity: 98%
CYP2B6
  Remaining enzyme activity: 87%
CYP2C8
  Remaining enzyme activity: 95%
CYP2D6
  Remaining enzyme activity: 107%
[2]
  inhibition potential towards 13 human cytochrome P450 enzymes: low

## COC(=O)N1CCN(C(=N)c2cccc(NC(=O)Nc3ccc(S(=O)(=O)NCc4ccc(S(N)(=O)=O)cc4)cc3)c2)CC1 [SC83288, methyl 4-(imino(3-(3-(4-(N-(4-sulfamoylbenzyl)sulfamoyl)phenyl)ureido)phenyl)methyl) piperazine-1-carboxylate]
[1]
  IC50: 6 ± 1 nM
P. falciparum strain 7G8
  IC50: 10 ± 1 nM
Plasmodium berghei
  Outcome: inactive
PK study; mouse i.v. 2 mg kg^−1
  VC: 0.549 L/kg
PK study; plasma, ip, 10 mg/kg, mice, i.p. 2.5, 5.0 and 10.0 mg kg^−1, read-out: effective half time t1/2
  half-life: 29 to 55 min
PK study; plasma, iv, 2 mg/kg, mouse i.v. 2 mg kg^−1, read-out: t1/2 effective
  half-life: 12 min
PK study; plasma, iv, 2 mg/kg, mouse i.v. 2 mg kg^−1, read-out: t1/2 initial
  half-life: 9 min
PK study; plasma, iv, 2 mg/kg, mouse i.v. 2 mg kg^−1, read-out: t1/2 terminal
  half-life: 43 min
PK study; plasma, ip, mouse i.p. 10 mg kg^−1
  AUC(0-inf): 2020 ng·h/mL
PK study; [4]
  AUC(0-inf): 891 ng·h/mL
  C0: 3640 ng/mL
  Cmax: 2560 ng/mL
  Tmax: 5 min
  clearance: 37.4 mL/min/kg
  MRT last: 16.8 min
PK study
  time of peak plasma concentration (Cmax): ≤ 30 min
A1 (h)
  Inhibition of control specific binding: 8%
b2 (h)
  Inhibition of control specific binding: 27%
BZD (central)
  Inhibition of control specific binding: 70%
D2S (h)
  Inhibition of control specific binding: 1%
ETA (h)
  Inhibition of control specific binding: 0%
GAL2 (h)
  Inhibition of control specific binding: 4%
CCR1 (h)
  Inhibition of control specific binding: -2%
H1 (h)
  Inhibition of control specific binding: 8%
M2 (h)
  Inhibition of control specific binding: 68%
NTS1 (NT1) (h)
  Inhibition of control specific binding: 1%
d2 (DOP) (h)
  Inhibition of control specific binding: 1%
M (MOP) (h)
  Inhibition of control specific binding: 25%
5-HT1A (h)
  Inhibition of control specific binding: 15%
5-HT2A (h)
  Inhibition of control specific binding: 30%
5-HT3 (h)
  Inhibition of control specific binding: 17%
5-HT7 (h)
  Inhibition of control specific binding: 4%
VPAC1 (VIP1) (h)
  Inhibition of control specific binding: -5%
KV channel
  Inhibition of control specific binding: 2%
5-HT transporter (h)
  Inhibition of control specific binding: 38%
HepG2 cells
  in vitro propagation / cytotoxicity: did not affect
CYP2A6
  Remaining enzyme activity: 101%
CYP2B6
  Remaining enzyme activity: 95%
CYP2C8
  Remaining enzyme activity: 89%
CYP2D6
  Remaining enzyme activity: 91%
[2]
  inhibition potential towards 13 human cytochrome P450 enzymes: low
